# Earlier results, collected in patent US11285184B2, “Cannabidiol alkaline composition” (CHIROSYN DISCOVERY TECHNOLOGIES INC., priority 2018, dated 2022).
# Settings: CBD dissolved in sulfuric acid/acetic acid
compound,measurement,value
"C=C(C)[C@@H]1CCC(C)=C[C@H]1c1c(O)cc(CCCCC)cc1O [CBD, 2-[1R-3-methyl-6R-(1-methylethenyl)-2-cyclohexen-1-yl]-5-pentyl-1,3-benzenediol]",Δ-8-THC formed from CBD,2%
same,Δ-9-THC formed from CBD,52%
